Measured values taken from patent US9730445B2, “Herbicidal compositions comprising 4-amino-3-chloro-5-fluoro-6-(4-chloro-2-fluoro-3-methoxyphenyl) pyridine-2-carboxylic acid or a derivative thereof and fungicides” (DOW AGROSCIENCES LLC, priority 2013, dated 2017).

How the values were obtained:
BRAPP = assay: Postemergence foliar-applied weed control, direct-seeded rice (greenhouse); format: in vivo
Text: (§1) Seeds or nutlets of the desired test plant species were planted in a soil matrix prepared by mixing aloam or sandy loam soil (e.g., 28.6 percent silt, 18.8 percent clay, and 52.6 percent sand, with a pH of about 5.8 and an organic matter content of about 1.8 percent) and calcareous grit in an 80 to 20 ratio. The soil matrix was contained in plastic pots with a volume of 1 quart and a surface area of 83.6 square centimeters (cm^2). When required to ensure good germination and healthy plants, a fungicide treatment and/or other chemical or physical treatment was applied. The plants were grown for 8-22 days in a greenhouse with an approximate 14 hour (h) photoperiod which was maintained at about 29° C. during the day and 26° C. during the night. Nutrients (Peters Excel® 15-5-15 5-Ca 2-Mg and iron chelate) were applied in the irrigation solution as needed and water was added on a regular basis. Supplemental lighting was provided with overhead metal halide 1000-Watt lamps as necessary. The plants were employed for testing when they reached the first through fourth true leaf stage.
(§2) Treatments consisted of the acid or esters of 4-amino-3-chloro-5-fluoro-6-(4-chloro-2-fluoro-3-methoxy-phenyl)pyridine-2-carboxylic acid (Compound A), each formulated as an SC (suspension concentrate), and various fungicidal components alone and in combination. Forms of compound A were applied on an acid equivalent basis.
(§3) Treatment requirements were calculated based upon the rates being tested, the concentration of active ingredient or acid equivalent in the formulation and a 12 milliliter (mL) application volume at a rate of 187 liters per hectare (L/ha).
(§4) For treatments comprised of formulated compounds, measured amounts of compounds were placed individually in 25 mL glass vials and diluted in a volume of 1.25% volume per volume (v/v) Agri-Dex® crop oil concentrate to obtain 12× stock solutions. […] Application solutions were prepared by adding an appropriate amount of each stock solution (e.g., 1 mL) and diluted to the appropriate final concentrations with the addition of […] of an aqueous mixture of 1.25% (v/v) crop oil concentrate so that the final spray solutions contained 1.25+/−0.05% (v/v) crop oil concentrate.
(§5) For treatments comprised of technical compounds, weighed amounts can be placed individually in 25 mL glass vials and dissolved in a volume of 97:3 volume per volume (v/v) acetone/dimethyl sulfoxide (DMSO) to obtain 12× stock solutions. […] When technical materials are used, the concentrated stock solutions can be added to the spray solutions so that the final acetone and DMSO concentrations of the application solutions are 16.2% and 0.5%, respectively.
(§6) As required, additional water and/or 97:3 v/v acetone/DMSO was added to individual application solutions so that the final acetone and DMSO concentrations of the application solutions being compared were 8.1% and 0.25%, respectively
(§7) All stock solutions and applications solutions were visually inspected for compound compatibility prior to application. Spray solutions were applied to the plant material with an overhead Mandel track sprayer equipped with 8002E nozzles calibrated to deliver 187 L/ha over an application area of 0.503 square meters (m^2) at a spray height of 18 to 20 inches (46 to 50 cm) above average plant canopy height. Control plants were sprayed in the same manner with the solvent blank.
(§8) The treated plants and control plants were placed in a greenhouse as described above and watered by sub-irrigation to prevent wash-off of the test compounds. After approximately 3 weeks, the condition of the test plants as compared with that of the untreated plants was determined visually and scored on a scale of 0 to 100 percent where 0 corresponds to no injury or growth inhibition and 100 corresponds to complete kill. […]

CYPIR = assay: as above; format: in vivo, Cyperus iria L. (rice flatsedge); settings: 21 DAA
Procedure: as §1, with “When required to ensure good germination and healthy plants, a fungicide treatment and/or other chemical or physical treatment was applied.” left out
as §2, §4, §5, §6, §7
(§9) The treated plants and control plants were placed in a greenhouse as described above and watered by sub-irrigation to prevent wash-off of the test compounds. After approximately 3 weeks, the condition of the test plants as compared with that of the untreated plants was determined visually and scored on a scale of 0 to 100 percent where 0 corresponds to no injury or growth inhibition and 100 corresponds to complete kill.
(§10) Colby's equation was used to determine the herbicidal effects expected from the mixtures (Colby, S. R. Calculation of the synergistic and antagonistic response of herbicide combinations. Weeds 1967, 15, 20-22.).
(§11) The following equation was used to calculate the expected activity of mixtures containing two active ingredients, A and B: Expected=A+B−(A×B/100)

ECHCG = assay: as above; format: in vivo, Echinochloa crus-galli (L.) P. Beauv. (barnyardgrass)
Procedure: as §1, with “When required to ensure good germination and healthy plants, a fungicide treatment and/or other chemical or physical treatment was applied.” left out
as §2, §4, §5, §6, §7, §9, §10, §11

ECHCO = assay: as above; format: in vivo, Echinochloa colonum (L.) LINK (junglerice); settings: 21 DAA
Text: as §1, §2, §3, §4, §5, §6, §7, §8

IPOHE = assay: as above; format: in vivo, Ipomoea hederacea (L.) Jacq. (ivyleaf morningglory); settings: r29-30 ester 8/16 g ae/ha alone, r31-33 hexaconazole 25/50/100 g ai/ha alone, r34-39 ester 8/16 at each of 25, 50, 100
Procedure: as §1, with “When required to ensure good germination and healthy plants, a fungicide treatment and/or other chemical or physical treatment was applied.” left out
as §2, §4, §5, §6, §7, §9, §10, §11

LEFCH [1] = assay: as above; format: in vivo, Leptochloa chinensis (L.) Nees (Chinese sprangletop); settings: 21 DAA
Procedure: as §1, with “When required to ensure good germination and healthy plants, a fungicide treatment and/or other chemical or physical treatment was applied.” left out
as §2, §4, §5, §6, §7, §9, §10, §11

CYPES = assay: as above; format: in vivo, Cyperus esculentus L. (yellow nutsedge)
Procedure: as §1, with “When required to ensure good germination and healthy plants, a fungicide treatment and/or other chemical or physical treatment was applied.” left out
as §2, §4, §5, §6, §7, §8

DIGSA = assay: as above; format: in vivo, Digitaria sanguinalis (L.) Scop. (large crabgrass)
Text: as §1, §2, §3, §4, §5, §6, §7, §8

CYPRO = assay: In-water applied weed control, transplanted paddy rice (greenhouse); format: in vivo, Cyperus rotundus L. (purple nutsedge)
Procedure: (§12) Weed seeds or nutlets of the desired test plant species were planted in puddled soil (mud) prepared by mixing a shredded, non-sterilized mineral soil (50.5 percent silt, 25.5 percent clay, and 24 percent sand, with a pH of about 7.6 and an organic matter content of about 2.9 percent) and water at a 1:1 volumetric ratio. The prepared mud was dispensed in 365 mL aliquots into 16-ounce (oz.) non-perforated plastic pots with a surface area of 86.59 square centimeters (cm^2) leaving a headspace of 3 centimeters (cm) in each pot. Rice seeds were planted in Sun Gro MetroMix® 306 planting mixture, which typically has a pH of 6.0 to 6.8 and an organic matter content of about 30 percent, in plastic plug trays. Seedlings at the second or third leaf stage of growth were transplanted into 860 mL of mud contained in 32-oz. non-perforated plastic pots with a surface area of 86.59 cm^2 4 days prior to herbicide application. The paddy was created by filling the headspace of the pots with 2.5 to 3 cm of water. When required to ensure good germination and healthy plants, a fungicide treatment and/or other chemical or physical treatment was applied. The plants were grown for 4-22 days in a greenhouse with an approximate 14 hour (h) photoperiod which was maintained at about 29° C. during the day and about 26° C. during the night. Nutrients were added as Osmocote® (17:6:10, N:P:K+minor nutrients) at 2 g per cup. Water was added on a regular basis to maintain the paddy flood, and supplemental lighting was provided with overhead metal halide 1000-Watt lamps as necessary. The plants were employed for testing when they reached the first through fourth true leaf stage.
as §2, with “(compound A)” for “(Compound A),”, “concentrate)” for “concentrate),”
(§13) Treatment requirements for each compound or fungicidal component were calculated based upon the rates being tested, the concentration of active ingredient or acid equivalent in the formulation, an application volume of 2 mL per component per pot, and an application area of 86.59 cm^2 per pot.
For formulated compounds, a measured amount was placed in an individual 100 or 200 mL glass vial and was dissolved in a volume of 1.25% (v/v) Agri-Dex® crop oil concentrate to obtain application solutions.
For technical grade compounds, a weighed amount was placed in an individual 100 to 200 mL glass vial and dissolved in a volume of acetone to obtain concentrated stock solutions.
Applications were made by injecting with a pipetter appropriate amounts of the application solutions, individually and sequentially, into the aqueous layer of the paddy. Control plants were treated in the same manner with the solvent blank. Applications were made so that all treated plant material received the same concentrations of acetone and crop oil concentrate.
as §9, with “water was added as needed” for “watered by sub-irrigation”, “maintain a paddy flood.” for “prevent wash-off of the test compounds.”, “weeks” for “weeks,”
as §10, §11

FIMMI = assay: as above; format: in vivo, Fimbristylis miliacea (L.) Vahl (globe fringerush); settings: Tricyclazole 200 g ai/ha
Procedure: as §12, with “stage. […]” for “stage.”
as §13
(§14) For formulated compounds, a measured amount was placed in an individual 100 or 200 mL glass vial and was dissolved in a volume of 1.25% (v/v) Agri-Dex® crop oil concentrate to obtain application solutions. […]
as §8, with “water was added as needed” for “watered by sub-irrigation”, “maintain a paddy flood.” for “prevent wash-off of the test compounds.”, “weeks” for “weeks,”

LEFCH [2] = assay: as above; format: in vivo, Leptochloa chinensis (L.) Nees (Chinese sprangletop)
Procedure: as §12, with “stage. […]” for “stage.”
as §13, §14
as §8, with “water was added as needed” for “watered by sub-irrigation”, “maintain a paddy flood.” for “prevent wash-off of the test compounds.”, “weeks” for “weeks,”

[3] = r9-11 ester 8/16/32 g ae/ha alone, r12-14 hexaconazole 25/50/100 g ai/ha alone, r15-23 ester 8/16/32 at each of 25, 50, 100
[4] = r10-12 ester 8/16/32 g ae/ha alone, r13-14 isoprothiolane 266/533 g ai/ha alone, r15-20 ester 8/16/32 at each of 266, 533
[5] = r38-39 ester 8/16 g ae/ha alone, r40 isotianil 380 g ai/ha alone, r41-42 ester 8/16 + 380

CCCCC(O)(Cn1cncn1)c1ccc(Cl)cc1Cl (racemic) [Hexaconazole, reference compound]
0%: Visual Weed Control (%)—21 DAA BRAPP Obs (BRAPP; r29-30 ester 8/16 g ae/ha alone, r31-33 hexaconazole 25/50/100 g ai/ha alone, r34-39 ester 8/16 at each of 25, 50, 100) | Visual Weed Control (%)—21 DAA CYPIR Obs (CYPIR; r45 ester 8 g ae/ha alone, r46-48 hexaconazole 25/50/100 g ai/ha alone, r49-51 ester 8 + 25/50/100) | Visual Weed Control (%)—21 DAA ECHCG Obs (ECHCG; [3]) | Visual Weed Control (%)—21 DAA ECHCO Obs (ECHCO; [3]) | Visual Weed Control (%)—21 DAA IPOHE Obs (IPOHE) | Visual Weed Control (%)—21 DAA LEFCH Obs (LEFCH [1]; [3])

CC(C)OC(=O)C(C(=O)OC(C)C)=C1SCCS1 [Isoprothiolane, diisopropyl 1,3-dithiolan-2-ylidenemalonate, reference compound]
0%: Visual Weed Control (%) - 21 DAA CYPES Obs (CYPES; [4]) | Visual Weed Control (%) - 21 DAA CYPIR Obs (CYPIR; r26-27 ester 16/32 g ae/ha alone, r28-29 isoprothiolane 266/533 g ai/ha alone, r30-33 ester 16/32 at each of 266, 533) | Visual Weed Control (%) - 21 DAA LEFCH Obs (LEFCH [1]; [4])

N#Cc1ccccc1NC(=O)c1snc(Cl)c1Cl [Isotianil, 3,4-dichloro-2′-cyano-1,2-thiazole-5-carboxanilide, reference compound]
0%: Visual Weed Control (%)—20 DAA BRAPP Obs (BRAPP; 20 DAA, r9-11 ester 8/16/32 g ae/ha alone, r12 isotianil 200 g ai/ha alone, r13-15 ester 8/16/32 + 200) | Visual Weed Control (%)—21 DAA BRAPP Obs (BRAPP; [5]) | Visual Weed Control (%)—20 DAA DIGSA Obs (DIGSA; 20 DAA, r21-23 ester 8/16/32 g ae/ha alone, r24-25 isotianil 100/200 g ai/ha alone, r26-31 ester 8/16/32 at each of 100, 200) | Visual Weed Control (%)—21 DAA DIGSA Obs (DIGSA; 21 DAA, r38-39 ester 8/16 g ae/ha alone, r40 isotianil 380 g ai/ha alone, r41-42 ester 8/16 + 380) | Visual Weed Control (%)—21 DAA ECHCG Obs (ECHCG; [5]) | Visual Weed Control (%)—21 DAA ECHCO Obs (ECHCO; [5]) | Visual Weed Control (%)—21 DAA LEFCH Obs (LEFCH [1]; [5])

O=C1CCc2cccc3c2N1CC3 [Pyroquilon, 1,2,5,6-tetrahydropyrrolo[3,2,1-ij]quinolin-4-one, reference compound]
0%: Visual Weed Control (%) - 21 DAA CYPES Obs (CYPES; r11-12 ester 8/16 g ae/ha alone, r13 pyroquilon 925 g ai/ha alone, r14-15 ester 8/16 + 925) | Visual Weed Control (%) - 21 DAA CYPIR Obs (CYPIR; r23-24 ester 16/32 g ae/ha alone, r25 pyroquilon 925 g ai/ha alone, r26-27 ester 16/32 + 925)

Cc1cccc2sc3nncn3c12 [Tricyclazole, 5-methyl-1,2,4-triazolo[3,4-b][1,3]benzothiazole, reference compound]
0%: Visual Weed Control (%) - 22 DAA CYPRO Obs (CYPRO; Tricyclazole 200 g ai/ha, 22 DAA) | Visual Weed Control (%) - 19 DAA CYPRO Obs (CYPRO; Tricyclazole 375 g ai/ha) | Visual Weed Control (%) - 19 DAA CYPRO Obs (CYPRO; Tricyclazole 750 g ai/ha) | Visual Weed Control (%) - 22 DAA FIMMI Obs (FIMMI) | Visual Weed Control (%) - 19 DAA LEFCH Obs (LEFCH [2]; Tricyclazole 187.5 g ai/ha) | Visual Weed Control (%) - 19 DAA LEFCH Obs (LEFCH [2]; Tricyclazole 750 g ai/ha)
